US20110038885A1, “CHEMOKINE ANALOGS” (priority 2007, published 2011)
pEC50: −log10 of the molar value. Numbered stars: 1 amine (or outer) side, 2 acyl side, 3 side chain; on linkers, the order of the positions; unused ones are H or OH. Bridge positions count the residues as written; N and C are the ends. Square brackets hold non-standard residues; d marks the D form. Side chains are listed from the residue outwards. Peptide text beside a SMILES is read from it. * marks the point of attachment. γGlu = O=C(O)[C@H](CCC(=O)[*:2])N[*:1]; Diglycolyl = O=C(COCC(=O)[*:2])[*:1]; Glutaryl = O=C(CCCC(=O)[*:2])[*:1]; Decanoyl = CCCCCCCCCC(=O)*; Isobutyryl = CC(C)C(=O)*; Orn = NCCC[C@H](N)C(=O)O; Dab = NCC[C@H](N)C(=O)O; Dap = NC[C@H](N)C(=O)O; Butyryl = CCCC(=O)*; Bz = O=C(c1ccccc1)*; Ava = NCCCCC(=O)O; GABA = NCCCC(=O)O; βAla = NCCC(=O)O

System: MCP-1
Assay: In vitro chemotaxis (trans-well migration) v MCP-1
Format: cell-based, human
Procedure, shortened: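 Trans-well migration toward IL-8 or MCP-1 placed below, with agent added to THP-1 cells (10^4-10^6) in the top well and incubation at 37° C (e.g. 4 hours). MTT absorbance at 595 nm, interpolated on a cell standard curve, gives migrated cell numbers; TGFβ-type negative control and cytotoxicity check included.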

Question: How did the pEC50 turn out when CC[C@H](C)[C@@H]1NC(=O)[C@H](Cc2c[nH]c3ccccc23)NC(=O)[C@H](CCCCN)NC(=O)CCCC(=O)NCCCC[C@@H](C(N)=O)NC(=O)[C@H](CCC(N)=O)NC1=O [Example 129, c(Glutaryl-Lys-Trp-Ile-Gln-Lys)-NH2] (KWIQK-NH2; linker N-5 via Glutaryl) was run?
Answer: Its pEC50 is 6.40.

Question: How did the pEC50 turn out when CC[C@H](C)[C@@H]1NC(=O)[C@H](Cc2c[nH]c3ccccc23)NC(=O)[C@H](CCCCN)NC(=O)COCC(=O)NC[C@@H](C(N)=O)NC(=O)[C@H](CCC(N)=O)NC1=O [Example 130, c(Diglycolyl-Lys-Trp-Ile-Gln-Dap)-NH2] (KWIQ[Dap]-NH2; linker N-5 via Diglycolyl) was run?
Answer: The pEC50 was 7.30.

Question: CC[C@H](C)[C@@H]1NC(=O)[C@H](Cc2c[nH]c3ccccc23)NC(=O)[C@H](CCCCN)NC(=O)COCC(=O)NCC[C@@H](C(N)=O)NC(=O)[C@H](CCC(N)=O)NC1=O [Example 131, c(Diglycolyl-Lys-Trp-Ile-Gln-Dab)-NH2] (KWIQ[Dab]-NH2; linker N-5 via Diglycolyl) was tested. Which pEC50 did it give?
Answer: Its pEC50 is 7.52.

Question: CC[C@H](C)[C@@H]1NC(=O)[C@H](Cc2c[nH]c3ccccc23)NC(=O)[C@H](CCCCN)NC(=O)COCC(=O)NCCC[C@@H](C(N)=O)NC(=O)[C@H](CCC(N)=O)NC1=O [Example 132, c(Diglycolyl-Lys-Trp-Ile-Gln-Orn)-NH2] (KWIQ[Orn]-NH2; linker N-5 via Diglycolyl) was tested. Which pEC50 did it give?
Answer: Its pEC50 is 6.70.

Question: How did the pEC50 turn out when CCCCCCCCCC(=O)N[C@@H](CCC(=O)NCCCC[C@H](N)C(=O)N[C@H]1CSSC[C@@H](C(N)=O)NC(=O)[C@H](CCC(N)=O)NC(=O)[C@H]([C@@H](C)CC)NC(=O)[C@H](Cc2c[nH]c3ccccc23)NC(=O)[C@H](CCCCN)NC(=O)[C@H](CCC(N)=O)NC(=O)[C@H](CCCCN)NC(=O)[C@@H]2CCCN2C(=O)[C@H](CC(=O)O)NC(=O)[C@H](CC(C)C)NC1=O)C(=O)O [Example 173, Lys{Nε-[γ-Glu-(Nα-decanoyl)]}-c(Cys-Leu-Asp-Pro-Lys-Gln-Lys-Trp-Ile-Gln-Cys)-NH2] (H-K([γGlu-Decanoyl])CLDPKQKWIQC-NH2; disulfide 2-12) was run?
Answer: The pEC50 was under 6.00.

Question: With CC(C)(C)OC(=O)N1Cc2ccccc2C[C@H]1C(=O)NCCC(=O)NC1CCC(=O)NC1=O (stereo partly drawn) [Example 174, BOC-Tic-βAla-α-aminoglutaramide] as the compound, how does the pEC50 read?
Answer: Its pEC50 is 6.70.

Question: How did the pEC50 turn out when N[C@@H](Cc1c[nH]c2ccccc12)C(=O)NCC(=O)NC1CCC(=O)NC1=O (stereo partly drawn) [Example 180, Trp-Gly-α-aminoglutaramide] was run?
Answer: Its pEC50 is 7.60.

Question: CC(C)[C@H](NC(=O)[C@@H](N)Cc1c[nH]c2ccccc12)C(=O)NC1CCC(=O)NC1=O (stereo partly drawn) [Example 181, Trp-Val-α-aminoglutaramide] was tested. Which pEC50 did it give?
Answer: The pEC50 was 7.70.

Question: CC[C@@H](C)[C@H]1NC(=O)[C@@H](CCC(N)=O)NC(=O)[C@H](NC(C)=O)CSSC[C@H](C(N)=O)NC(=O)[C@@H](CCCCN)NC(=O)[C@@H](Cc2c[nH]c3ccccc23)NC1=O [Example 190, Ac-c(D-Cys-D-Gln-D-Ile-D-Trp-D-Lys-D-Cys)-NH2] (Ac-[dC][dQ][dI][dW][dK][dC]-NH2; disulfide 1-6) was tested. Which pEC50 did it give?
Answer: The pEC50 was 7.52.

Question: How did the pEC50 turn out when CC[C@@H](C)[C@H]1NC(=O)[C@@H](CCC(N)=O)NC(=O)[C@H](NC(=O)c2ccccc2)CSSC[C@H](C(N)=O)NC(=O)[C@@H](CCCCN)NC(=O)[C@@H](Cc2c[nH]c3ccccc23)NC1=O [Example 192, Benzoyl-c(D-Cys-D-Gln-D-Ile-D-Trp-D-Lys-D-Cys)-NH2] (Bz-[dC][dQ][dI][dW][dK][dC]-NH2; disulfide 1-6) was run?
Answer: The pEC50 was 8.15.

Question: With CC[C@@H](C)[C@H]1NC(=O)[C@@H](CCC(N)=O)NC(=O)[C@H](NC(=O)C(C)C)CSSC[C@H](C(N)=O)NC(=O)[C@@H](CCCCN)NC(=O)[C@@H](Cc2c[nH]c3ccccc23)NC1=O [Example 193, Isobutyryl-c(D-Cys-D-Gln-D-Ile-D-Trp-D-Lys-D-Cys)-NH2] (Isobutyryl-[dC][dQ][dI][dW][dK][dC]-NH2; disulfide 1-6) as the compound, how does the pEC50 read?
Answer: The pEC50 was 7.60.

Question: How did the pEC50 turn out when CC[C@@H](C)[C@H]1NC(=O)[C@@H](CCC(N)=O)NC(=O)CCNC(=O)C[C@H](C(N)=O)NC(=O)[C@@H](CCCCN)NC(=O)[C@@H](Cc2c[nH]c3ccccc23)NC1=O [Example 195, c((βAla-D-Gln-D-Ile-D-Trp-D-Lys-D-Asp)-NH2] ([βAla][dQ][dI][dW][dK][dD]-NH2; lactam N-6) was run?
Answer: The pEC50 was 7.35.

Question: CC[C@@H](C)[C@H]1NC(=O)[C@@H](CCC(N)=O)NC(=O)CCCNC(=O)C[C@H](C(N)=O)NC(=O)[C@@H](CCCCN)NC(=O)[C@@H](Cc2c[nH]c3ccccc23)NC1=O [Example 196, c(Gaba-D-Gln-D-Ile-D-Trp-D-Lys-D-Asp)-NH2] ([GABA][dQ][dI][dW][dK][dD]-NH2; lactam N-6) was tested. Which pEC50 did it give?
Answer: The pEC50 was 7.30.

Question: How did the pEC50 turn out when CC[C@@H](C)[C@H]1NC(=O)[C@@H](CCC(N)=O)NC(=O)CCCCNC(=O)C[C@H](C(N)=O)NC(=O)[C@@H](CCCCN)NC(=O)[C@@H](Cc2c[nH]c3ccccc23)NC1=O [Example 197, c(Apn-D-Gln-D-Ile-D-Trp-D-Lys-D-Asp)-NH2] ([Ava][dQ][dI][dW][dK][dD]-NH2; lactam N-6) was run?
Answer: Its pEC50 is 7.70.

Question: CC[C@@H](C)[C@H]1NC(=O)[C@@H](CCC(N)=O)NC(=O)[C@H](NC(C)=O)CSSC[C@H](C(N)=O)NC(=O)[C@@H](CC(C)C)NC(=O)[C@@H](CC(=O)O)NC(=O)[C@H]2CCCN2C(=O)[C@@H](CCCCN)NC(=O)[C@@H](CCC(N)=O)NC(=O)[C@@H](CCCCN)NC(=O)[C@@H](Cc2c[nH]c3ccccc23)NC1=O [Example 198, Ac-c(D-Cys-D-Gln-D-Ile-D-Trp-D-Lys-D-Gln-D-Lys-D-Pro-D-Asp-D-Leu-D-Cys)-NH2] (Ac-[dC][dQ][dI][dW][dK][dQ][dK][dP][dD][dL][dC]-NH2; disulfide 1-11) was tested. Which pEC50 did it give?
Answer: Its pEC50 is 7.70.

Question: CC[C@@H](C)[C@H]1NC(=O)[C@@H](CCC(N)=O)NC(=O)CCNC(=O)C[C@H](C(N)=O)NC(=O)[C@@H](CC(C)C)NC(=O)[C@@H](CC(=O)O)NC(=O)[C@H]2CCCN2C(=O)[C@@H](CCCCN)NC(=O)[C@@H](CCC(N)=O)NC(=O)[C@@H](CCCCN)NC(=O)[C@@H](Cc2c[nH]c3ccccc23)NC1=O [Example 199, c(βAla-D-Gln-D-Ile-D-Trp-D-Lys-D-Gln-D-Lys-D-Pro-D-Asp-D-Leu-D-Asp)-NH2] ([βAla][dQ][dI][dW][dK][dQ][dK][dP][dD][dL][dD]-NH2; lactam N-11) was tested. Which pEC50 did it give?
Answer: Its pEC50 is 7.70.

Question: CCCC(=O)N[C@@H]1CSSC[C@H](C(N)=O)NC(=O)[C@@H](CCCCN)NC(=O)[C@@H](Cc2c[nH]c3ccccc23)NC(=O)[C@@H](C(C)C)NC(=O)[C@@H](CCC(N)=O)NC1=O [Example 200, Butanyl-c(D-Cys-D-Gln-D-Val-D-Trp-D-Lys-D-Cys)-NH2] (Butyryl-[dC][dQ][dV][dW][dK][dC]-NH2; disulfide 1-6) was tested. Which pEC50 did it give?
Answer: Its pEC50 is 7.52.

Question: How did the pEC50 turn out when CC[C@H](C)[C@H](NC(=O)[C@H](Cc1c[nH]c2ccccc12)NC(=O)[C@H](CCCCN)NC(=O)[C@H](CC(=O)O)NC(=O)C(C)C)C(=O)N[C@@H](CCC(N)=O)C(=O)N[C@@H](CCCCN)C(N)=O [Example 201, Isobutyryl-Asp-Lys-Trp-Ile-Gln-Lys-NH2] (Isobutyryl-DKWIQK-NH2) was run?
Answer: Its pEC50 is 8.00.

Question: CC[C@H](C)[C@H](NC(=O)[C@H](Cc1c[nH]c2ccccc12)NC(=O)[C@H](CCCCN)NC(=O)[C@H](CCCN)NC(=O)C(C)C)C(=O)N[C@@H](CCC(N)=O)C(=O)N[C@@H](CC(=O)O)C(N)=O [Example 202, Isobutyryl-Orn-Lys-Trp-Ile-Gln-Asp-NH2] (Isobutyryl-[Orn]KWIQD-NH2) was tested. Which pEC50 did it give?
Answer: The pEC50 was 8.10.

Question: “[aminoPeg10-oxaglutaryl]2-c(D-Cys-D-Gln-D-Ile-D-Trp-D-Lys-D-Gln-D-Lys-D-Pro-D-Asp-D-Leu-D-Cys)-NH2 [Example 186]” was tested. Which pEC50 did it give?
Answer: The pEC50 was 7.70.
